From PubChem BioAssay AID651883 (Southern Research Specialized Biocontainment Screening …, 2012)

Tested on: VEEV Trinidad donkey virus titer reduction, cell culture
Test: VEEV Trinidad donkey titer reduction, cell-based, Trinidad donkey strain (AID 651883)
Conditions: stronger effect = lower value

| SMILES | log virus titer change (at 5 µM) | log virus titer change (titer change, at 0.5 µM) | log virus titer change (titer change, at 1 µM) | log virus titer change (titer change, at 2 µM) |
| --- | --- | --- | --- | --- |
| CCN1CCN(Cc2nc3ccc([N+](=O)[O-])cc3c(=O)n2-c2ccccc2F)CC1 | -5.84 | -0.518 | -2.39 | < -5.95 |
| CN1CCN(C)C(=Nc2ccc([N+](=O)[O-])cc2C(=O)Nc2ccccc2)C1 | < -5.95 | < -5.95 | < -5.95 | < -5.95 |
| COc1ccc(NC(=O)c2cc([N+](=O)[O-])ccc2N=C2CN(C)CCN2C)cc1 | < -5.95 | < -5.95 | < -5.95 | < -5.95 |
| CCN1CCN(C)CC1=Nc1ccc([N+](=O)[O-])cc1C(=O)Nc1ccccc1 | < -5.95 | < -5.95 | < -5.95 | < -5.95 |
